Laboratory results: patent US20250145585A1, “HETEROCYCLIC INHIBITORS OF IGF-1R FOR TREATMENT OF DISEASE” (HORIZON THERAPEUTICS IRELAND DAC, priority 2023, published 2025)

Molecular target: T1, IGF-1R (Homo sapiens, UniProt P08069)
T1 construct: expressed in transfected cells
Experiment: Example B-2: IGF-1R Assay (PathHunter cell lines, EC80 agonist challenge, chemiluminescent detection)
Assay type: cell-based
Details: PathHunter cells, compound 60 minutes at 37° C., EC80 agonist 3 hours; read-out: IC50, Biological Activity against IGF-1R (Table B2)
Protocol: PathHunter cell lines were expanded from freezer stocks according to standard procedures. Cells were seeded in a total volume of 20 μL into white walled, 384-well microplates and incubated for the appropriate time prior to testing.
Cells are pre-incubated with compound followed by EC80 agonist challenge as follows: • R. 1. Intermediate dilution of sample stocks was performed to generate 5× sample in assay buffer. • 2. 5 μL of 5× sample was added to cells and incubated at 37° C. for 60 minutes. Vehicle concentration was 1%. • 3. 5 IL of 6× EC80 agonist in assay buffer was added to the cells and incubated at room temperature for 3 hours.
Assay signal was generated through a single addition of 12.5 or 15 μL (50% v/v) of PathHunter Detection reagent cocktail for agonist and antagonist assays respectively, followed by a one hour incubation at room temperature. Microplates were read following signal generation with a PerkinElmer Envision™ instrument for chemilumine-scent signal detection.
Compound activity was analyzed using CBIS data analysis suite (ChemInnovation, CA). Percentage inhibition was calculated using the following formula: % Inhibition=100%×(1−(mean RLU of test sample−mean RLU of vehicle control)/(mean RLU of EC80 control−mean RLU of vehicle control)). The activity for representative examples of the invention is shown in the following table, wherein A: IC50≤500 nM; B: 500 nM<IC50≤2 μM; C: 2 μM<IC50≤10 μM; D: IC50>10 μM.

T1 sequence (P08069 31-1367): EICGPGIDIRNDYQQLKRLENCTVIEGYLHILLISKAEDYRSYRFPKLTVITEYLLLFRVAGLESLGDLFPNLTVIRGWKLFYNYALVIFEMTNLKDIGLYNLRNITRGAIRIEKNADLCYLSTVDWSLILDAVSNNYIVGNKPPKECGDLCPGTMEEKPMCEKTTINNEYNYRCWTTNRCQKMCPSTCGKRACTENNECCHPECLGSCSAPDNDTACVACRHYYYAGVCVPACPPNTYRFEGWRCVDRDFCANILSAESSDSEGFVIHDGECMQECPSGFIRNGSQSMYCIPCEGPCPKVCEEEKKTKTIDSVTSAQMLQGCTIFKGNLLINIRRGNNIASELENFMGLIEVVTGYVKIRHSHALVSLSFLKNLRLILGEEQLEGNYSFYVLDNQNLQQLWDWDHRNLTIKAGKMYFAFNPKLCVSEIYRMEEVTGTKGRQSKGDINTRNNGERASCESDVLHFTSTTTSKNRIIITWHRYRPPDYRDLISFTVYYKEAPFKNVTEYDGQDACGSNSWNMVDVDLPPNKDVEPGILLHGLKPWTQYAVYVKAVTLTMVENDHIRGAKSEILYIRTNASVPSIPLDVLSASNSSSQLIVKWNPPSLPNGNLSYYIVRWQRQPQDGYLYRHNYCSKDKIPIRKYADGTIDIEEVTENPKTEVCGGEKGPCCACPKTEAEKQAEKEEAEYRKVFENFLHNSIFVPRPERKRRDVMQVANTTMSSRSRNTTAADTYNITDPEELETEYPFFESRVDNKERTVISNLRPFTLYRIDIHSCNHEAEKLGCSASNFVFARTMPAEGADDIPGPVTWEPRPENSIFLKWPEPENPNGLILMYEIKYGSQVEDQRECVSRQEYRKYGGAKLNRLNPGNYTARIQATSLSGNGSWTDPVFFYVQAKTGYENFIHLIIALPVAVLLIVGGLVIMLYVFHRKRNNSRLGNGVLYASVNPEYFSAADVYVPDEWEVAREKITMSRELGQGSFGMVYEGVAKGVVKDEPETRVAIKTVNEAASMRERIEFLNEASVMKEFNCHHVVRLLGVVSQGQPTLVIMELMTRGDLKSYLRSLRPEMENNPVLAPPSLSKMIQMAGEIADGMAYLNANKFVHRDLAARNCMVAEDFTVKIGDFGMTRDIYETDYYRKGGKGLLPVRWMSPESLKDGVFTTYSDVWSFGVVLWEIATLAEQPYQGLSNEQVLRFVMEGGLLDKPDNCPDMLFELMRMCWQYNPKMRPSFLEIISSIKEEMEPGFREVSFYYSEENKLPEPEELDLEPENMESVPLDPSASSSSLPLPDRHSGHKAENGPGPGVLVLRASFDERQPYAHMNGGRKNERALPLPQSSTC

Row | Compound | IC50 [nM]
1 | CC1(C)C(=O)N(c2ccc(C3(C#N)CC3(C)C)cc2)C(=O)N1Cc1ccnc2c1CC(=O)N2 (stereo not shown) [Compound 61, 1-(4-(4,4-dimethyl-2,5-dioxo-3-((2-oxo-2,3-dihydro-1H-pyrrolo[2,3-b]pyridin-4-yl)methyl)imidazolidin-1-yl)phenyl)-2,2-dimethylcyclopropane-1-carbonitrile] | ≤ 500
2 | CC1(C)C(=O)N(c2ccc(S(C)(=O)=O)cc2)C(=O)N1Cc1ccnc2c1CC(=O)N2 [Compound 62, 5,5-dimethyl-3-(4-(methylsulfonyl)phenyl)-1-((2-oxo-2,3-dihydro-1H-pyrrolo[2,3-b]pyridin-4-yl)methyl)imidazolidine-2,4-dione] | > 10000
3 | CC1(C)C(=O)N(c2ccc(S(=O)(=O)C(F)F)cc2)C(=O)N1Cc1ccnc2c1CC(=O)N2 [Compound 63, 3-(4-((difluoromethyl)sulfonyl)phenyl)-5,5-dimethyl-1-((2-oxo-2,3-dihydro-1H-pyrrolo[2,3-b]pyridin-4-yl)methyl)imidazolidine-2,4-dione] | 500 to 2000
4 | CC1(C)C(=O)N(c2ccc(C3(C#N)CC3)cc2)C(=O)N1Cc1ccnc2c1CC(=O)N2 [Compound 64, 1-(4-(4,4-dimethyl-2,5-dioxo-3-((2-oxo-2,3-dihydro-1H-pyrrolo[2,3-b]pyridin-4-yl)methyl)imidazolidin-1-yl)phenyl)cyclopropane-1-carbonitrile] | 500 to 2000
5 | CN1C(=O)Cc2c(CN3C(=O)N(c4ccc(C5(C#N)CCC5)cc4)C(=O)C3(C)C)ccnc21 [Compound 65, 1-(4-(4,4-dimethyl-3-((1-methyl-2-oxo-2,3-dihydro-1H-pyrrolo[2,3-b]pyridin-4-yl)methyl)-2,5-dioxoimidazolidin-1-yl)phenyl)cyclobutane-1-carbonitrile] | > 10000
6 | CC1(C)C(=O)N(c2ccc(C(F)(F)F)c(C#N)c2)C(=O)N1Cc1ccnc2c1CC(=O)N2 [Compound 66, 5-(4,4-dimethyl-2,5-dioxo-3-((2-oxo-2,3-dihydro-1H-pyrrolo[2,3-b]pyridin-4-yl)methyl)imidazolidin-1-yl)-2-(trifluoromethyl)benzonitrile] | > 10000
7 | CC1(C)C(=O)N(c2ccc3c(c2)N(S(C)(=O)=O)CC3)C(=O)N1Cc1ccnc2c1CC(=O)N2 [Compound 67, 5,5-dimethyl-3-(1-(methylsulfonyl)indolin-6-yl)-1-((2-oxo-2,3-dihydro-1H-pyrrolo [2,3-b]pyridin-4-yl)methyl)imidazolidine-2,4-dione] | > 10000
8 | CC(C)c1ccc(N2C(=O)N(Cc3ccnc4c3CC(=O)N4)C(C)(C)C2=O)cc1C#N [Compound 68, 5-(4,4-dimethyl-2,5-dioxo-3-((2-oxo-2,3-dihydro-1H-pyrrolo[2,3-b]pyridin-4-yl)methyl)imidazolidin-1-yl)-2-isopropylbenzonitrile] | 500 to 2000
9 | CC1(C)C(=O)N(c2ccc(C3(C#N)CC34CC4)cc2)C(=O)N1Cc1ccnc2c1CC(=O)N2 (stereo not shown) [Compound 69, 1-(4-(4,4-dimethyl-2,5-dioxo-3-((2-oxo-2,3-dihydro-1H-pyrrolo[2,3-b]pyridin-4-yl)methyl)imidazolidin-1-yl)phenyl)spiro[2.2]pentane-1-carbonitrile] | ≤ 500
10 | CC1(C)C(=O)N(c2ccc3c(c2)OC(F)(F)C32CC2)C(=O)N1Cc1ccnc2c1CC(=O)N2 [Compound 70, 3-(2,2-difluoro-2H-spiro[benzofuran-3,1′-cyclopropan]-6-yl)-5,5-dimethyl-1-((2-oxo-2,3-dihydro-1H-pyrrolo[2,3-b]pyridin-4-yl)methyl)imidazolidine-2,4-dione] | 2000 to 10000
11 | CC1(C)C(=O)N(c2ccc(C3(C#N)CC3)c(F)c2)C(=O)N1Cc1ccnc2c1CC(=O)N2 [Compound 71, 1-(4-(4,4-dimethyl-2,5-dioxo-3-((2-oxo-2,3-dihydro-1H-pyrrolo[2,3-b]pyridin-4-yl)methyl)imidazolidin-1-yl)-2-fluorophenyl)cyclopropane-1-carbonitrile] | 500 to 2000
12 | COC[C@@H]1COc2c(CN3C(=O)N(c4ccc(C5(C(F)(F)F)CC5)cc4)C(=O)C3(C)C)ccnc2N1 [Compound 72, (R)-1-((3-(methoxymethyl)-3,4-dihydro-2H-pyrido[3,2-b][1,4]oxazin-8-yl)methyl)-5,5-dimethyl-3-(4-(1-(trifluoromethyl)cyclopropyl)phenyl) imidazolidine-2,4-dione] | ≤ 500
13 | CC1(C)C(=O)N(c2ccc(OC(F)(F)F)c(N3CCOCC3)c2)C(=O)N1Cc1ccnc2c1CC(=O)N2 [Compound 74, 5,5-dimethyl-3-(3-morpholino-4-(trifluoromethoxy)phenyl)-1-((2-oxo-2,3-dihydro-1H-pyrrolo[2,3-b]pyridin-4-yl)methyl)imidazolidine-2,4-dione] | ≤ 500
14 | CC1(C)C(=O)N(c2ccc(OC(F)(F)F)c(NC(=O)CN3CCOCC3)c2)C(=O)N1Cc1ccnc2c1CC(=O)N2 [Compound 75, N-(5-(4,4-dimethyl-2,5-dioxo-3-((2-oxo-2,3-dihydro-1H-pyrrolo[2,3-b]pyridin-4-yl)methyl)imidazolidin-1-yl)-2-(trifluoromethoxy)phenyl)-2-morpholinoacetamide] | ≤ 500
15 | CC1(C)C(=O)N(c2ccc(C#N)c(C(F)(F)F)c2)C(=O)N1Cc1ccnc2c1CC(=O)N2 [Compound 76, 4-(4,4-dimethyl-2,5-dioxo-3-((2-oxo-2,3-dihydro-1H-pyrrolo[2,3-b]pyridin-4-yl)methyl)imidazolidin-1-yl)-2-(trifluoromethyl)benzonitrile] | 2000 to 10000
16 | CC(C)(C)C(=O)Oc1cc2c(CN3C(=O)N(c4ccc(C5(C(F)(F)F)CC5)cc4)C(=O)C3(C)C)ccnc2[nH]1 [Compound 77, 4-((5,5-dimethyl-2,4-dioxo-3-(4-(1-(trifluoromethyl)cyclopropyl)phenyl)imidazolidin-1-yl)methyl)-1H-pyrrolo [2,3-b]pyridin-2-yl pivalate] | ≤ 500
17 | CCOC(=O)N1C(=O)Cc2c(CN3C(=O)N(c4ccc(C5(C(F)(F)F)CC5)cc4)C(=O)C3(C)C)ccnc21 [Compound 78, ethyl 4-((5,5-dimethyl-2,4-dioxo-3-(4-(1-(trifluoromethyl)cyclopropyl)phenyl)imidazolidin-1-yl)methyl)-2-oxo-2,3-dihydro-1H-pyrrolo[2,3-b]pyridine-1-carboxylate] | ≤ 500
18 | CC(C)(C)Cn1ccc(N2C(=O)N(Cc3ccnc4c3CC(=O)N4)C(C)(C)C2=O)cc1=O [Compound 79, 5,5-dimethyl-3-(1-neopentyl-2-oxo-1,2-dihydropyridin-4-yl)-1-((2-oxo-2,3-dihydro-1H-pyrrolo[2,3-b]pyridin-4-yl)methyl)imidazolidine-2,4-dione] | > 10000
19 | CC(CS(C)(=O)=O)Nc1cc(CN2C(=O)N(c3ccc(C4(C(F)(F)F)CC4)cc3)C(=O)C2(C)C)ccn1 (stereo not shown) [Compound 140, 5,5-dimethyl-1-((2-((1-(methylsulfonyl)propan-2-yl)amino)pyridin-4-yl)methyl)-3-(4-(1-(trifluoromethyl)cyclopropyl)phenyl) imidazolidine-2,4-dione] | 500 to 2000
20 | CC1(C)C(=O)N(c2ccc(C3(C(F)(F)F)CC3)cc2)C(=O)N1Cc1ccnc(NC2CS(=O)(=O)C2)c1 [Compound 141, 1-((2-((1,1-dioxidothietan-3-yl)amino)pyridin-4-yl)methyl)-5,5-dimethyl-3-(4-(1-(trifluoromethyl)cyclopropyl)phenyl) imidazolidine-2,4-dione] | 500 to 2000
21 | CC1(C)C(=O)N(c2ccc(C3(C(F)(F)F)CC3)cc2)C(=O)N1Cc1ccnc(N[C@H]2C[C@H]2F)c1 [Compound 142, 1-((2-(((1S,2R)-2-fluorocyclopropyl)amino)pyridin-4-yl)methyl)-5,5-dimethyl-3-(4-(1-(trifluoromethyl)cyclopropyl)phenyl)imidazolidine-2,4-dione] | ≤ 500
22 | CC(C)Nc1cc(CN2C(=O)N(c3ccc(C(C)(C)C#N)nc3)C(=O)C2(C)C)ccn1 [Compound 143, 2-(5-(3-((2-(isopropylamino)pyridin-4-yl)methyl)-4,4-dimethyl-2,5-dioxoimidazolidin-1-yl)pyridin-2-yl)-2-methylpropanenitrile] | 500 to 2000
23 | CC(C)Nc1cc(CN2C(=O)N(c3ccc(C4(C#N)CC4)cc3)C(=O)C2(C)C)ccn1 [Compound 144, 1-(4-(3-((2-(isopropylamino)pyridin-4-yl)methyl)-4,4-dimethyl-2,5-dioxoimidazolidin-1-yl)phenyl)cyclopropane-1-carbonitrile] | 500 to 2000
24 | CC(C)Nc1cc(CN2C(=O)N(c3ccc(C4(C#N)CC4(C)C)cc3)C(=O)C2(C)C)ccn1 (stereo not shown) [Compound 145, 1-(4-(3-((2-(isopropylamino)pyridin-4-yl)methyl)-4,4-dimethyl-2,5-dioxoimidazolidin-1-yl)phenyl)-2,2-dimethylcyclopropane-1-carbonitrile] | ≤ 500
25 | CC1(C)C(=O)N(c2ccc(C3(C(F)(F)F)CC3)cc2)C(=O)N1Cc1ccnc(NC2CCN(S(C)(=O)=O)C2)c1 (stereo not shown) [Compound 146, 5,5-dimethyl-1-((2-((1-(methylsulfonyl)pyrrolidin-3-yl)amino)pyridin-4-yl)methyl)-3-(4-(1-(trifluoromethyl)cyclopropyl)phenyl) imidazolidine-2,4-dione] | 500 to 2000
